# Measured values as given in patent US12215116B2, “Arginase inhibitors and methods of use” (Merck Sharp & Dohme LLC, priority 2018, dated 2025).
# Molecular target: T1, Arginase (ARG1 enzyme) (Homo sapiens, UniProt P05089)
# T1 construct: made in house; host or cells: Escherichia coli
# T1 sequence (P05089 1-322): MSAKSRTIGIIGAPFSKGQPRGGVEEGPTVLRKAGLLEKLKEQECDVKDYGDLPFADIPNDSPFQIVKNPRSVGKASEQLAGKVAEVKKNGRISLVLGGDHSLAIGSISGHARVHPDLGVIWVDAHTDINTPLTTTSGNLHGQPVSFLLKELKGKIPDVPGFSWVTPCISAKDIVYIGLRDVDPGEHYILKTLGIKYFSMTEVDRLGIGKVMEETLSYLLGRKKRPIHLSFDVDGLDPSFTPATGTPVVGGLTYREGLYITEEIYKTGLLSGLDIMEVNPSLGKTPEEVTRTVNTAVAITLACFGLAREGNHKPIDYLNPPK
# Assay: Arginase Thioornithine Generating Assay (TOGA)
# Type: biochemical
# Conditions: 1.88 nM arginase, thioarginine substrate, fluorescence readout
# Method: Arginase Thioornithine Generating Assay (TOGA)
# Compounds were serially diluted in ten 3-fold steps in DMSO starting from 10 mM DMSO stocks. Compound dilutions or DMSO alone were then dispensed from the dilution plate into a Greiner black 384-well assay plate (catalog #781086) using an Echo 555 acoustic liquid handler (Labcyte).
# Arginase protein was recombinantly expressed in Escherichia coli. Purified protein was then diluted in assay buffer (50 mM Tris pH 7.5, 50 mM NaCl, 1 mM manganese chloride, 0.05% bovine serum albumin to obtain a final Arginase concentration of 1.88 nM. Arginase solution (20 μL) or buffer alone (20 μL) were dispensed to wells of the assay plate using a BioRAPTR liquid dispenser (Beckman Coulter). Assay plates containing compound and ARG1 enzyme were incubated at room temperature for 30 minutes. Afterwards, 5 μL of 2.5 mM thioarginine (Cayman Chemicals) in assay buffer were added to each well of the assay plate using a BioRAPTR liquid dispenser. Plates were incubated at room temperature for 60 minutes and reactions were quenched by addition of 15 μL of […] 7-Diethylamine-3-(4-maleimidophenyl)-4-methylcoumarin (Sigma Chemical) in 70% ethanol. Plates were briefly shaken to mix and the fluorescence was measured in an Spectramax plate reader (Molecular Devices) with a 410 nm excitation wavelength and an 490 nm emission wavelength.
# Potencies were calculated by […] to the four parameter logistic IC50 equation.
row,Compound,IC50 [nM]
1,"CNC[C@@H]1C[C@@H](CCCB(O)O)[C@@H](C(=O)O)N1 [Example 62, (2S,3R,5S)-3-(3-boronopropyl)-5-((methylamino)methyl)pyrrolidine-2-carboxylic acid]",34.9
2,"O=C(O)[C@H]1NC[C@H](NCC(F)F)[C@H]1CCCB(O)O [Example 27, (2S,3R,4R)-3-(3-boronopropyl)-4-((2,2-difluoroethyl)amino)pyrrolidine-2-carboxylic acid]",128
3,"CN[C@H](C(=O)N[C@H]1CN[C@H](C(=O)O)[C@@H]1CCCB(O)O)C(C)C [Example 43, (2S,3R,4R)-3-(3-boronopropyl)-4-((S)-3-methyl-2-(methylamino)butanamido)pyrrolidine-2-carboxylic acid]",2.98
4,"CN(C)C[C@]1(C(=O)O)NCC[C@H]1CCCB(O)O [Example 58, (2R,3R)-3-(3-boronopropyl)-2-((dimethylamino)methyl)pyrrolidine-2-carboxylic acid]",> 10000
5,"CCN(CC)[C@H]1CN[C@H](C(=O)O)[C@@H]1CCCB(O)O [Example 28, (2S,3S,4R)-3-(3-boronopropyl)-4-(diethylamino)pyrrolidine-2-carboxylic acid]",3290
6,"O=C(O)C1(CCN2CCCCC2)CC(CCB(O)O)CCN1 (stereo not shown) [Example 5, 4-[2-(dihydroxyboranyl)ethyl]-2-[2-(piperidin-1-yl)ethyl]piperidinyl-2-carboxylic acid]",1330
7,"O=C(O)[C@H]1NCCO[C@H]1CCCB(O)O [Example 52, (2S,3S)-2-(3-boronopropyl)morpholine-3-carboxylic acid]",211
8,"O=C(O)[C@H]1NCC[C@]1(CCCB(O)O)C(F)F [Example 84, (2S,3S)-3-(3-boronopropyl)-3-(difluoromethyl)pyrrolidine-2-carboxylic acid]",28.9
9,"CN(C)CC[C@]1(C(=O)O)NCC[C@H]1CCCB(O)O [Example 54, (2S,3R)-3-(3-boronopropyl)-2-(2-(dimethylamino)ethyl)pyrrolidine-2-carboxylic acid]",31.5
10,"C[C@@]1(CCCB(O)O)[C@@H](CO)CN[C@@H]1C(=O)O [Example 80, (2S,3R,4R)-3-(3-boronopropyl)-4-(hydroxymethyl)-3-methylpyrrolidine-2-carboxylic acid]",27.3
11,"O=C(O)[C@H]1NC[C@H](N2CCCC2)[C@H]1CCCB(O)O [Example 25, (3′R,4′S,5′S)-4′-(3-boronopropyl)-[1,3′-bipyrrolidine]-5′-carboxylic acid]",522
12,"CO[C@H]1CN[C@H](C(=O)O)[C@@H]1CCCB(O)O [Example 36, (2S,3S,4R)-3-(3-boronopropyl)-4-methoxypyrrolidine-2-carboxylic acid]",46.1
13,"O=C(O)[C@H]1NCCC1CCCB(O)O (stereo partly drawn) [Example 9, 3-[3-(dihydroxyboranyl)propyl]-L-proline]",113
14,"CC(C)[C@H](N)C(=O)N[C@H]1CN[C@H](C(=O)O)[C@@H]1CCCB(O)O [Example 37, (2S,3R,4R)-4-((S)-2-amino-3-methylbutanamido)-3-(3-boronopropyl)pyrrolidine-2-carboxylic acid]",2.09
15,"CC(C)[C@@H](N)C(=O)N[C@H]1CN[C@H](C(=O)O)[C@@H]1CCCB(O)O [Example 46, (2S,3R,4R)-4-((R)-2-amino-3-methylbutanamido)-3-(3-boronopropyl)pyrrolidine-2-carboxylic acid]",35.4
16,"CC1(C)[C@H]2C[C@@H]3OB(CCC[C@]4(C)CCN[C@@H]4C(=O)O)O[C@]3(C)[C@@H]1C2 [Example 22, (2S,3R)-3-methyl-3-(3-((3aR,4R,6R,7aS)-3a,5,5-trimethylhexahydro-4,6-methanobenzo[d][1,3,2]dioxaborol-2-yl)propyl)pyrrolidine-2-carboxylic acid]",151
17,"C[C@H](N)C(=O)N(C)[C@H]1CN[C@H](C(=O)O)[C@@H]1CCCB(O)O [Example 51, (2S,3S,4R)-4-((S)-2-amino-N-methylpropanamido)-3-(3-boronopropyl)pyrrolidine-2-carboxylic acid]",985
18,"NC(=O)[C@@]1(CCCB(O)O)CCN[C@@H]1C(=O)O [Example 89, (2S,3S)-3-(3-boronopropyl)-3-carbamoylpyrrolidine-2-carboxylic acid]",289
19,"CC1CC(CCCB(O)O)[C@@H](C(=O)O)N1 (stereo partly shown) [Example 17, 3-[3-(dihydroxyboranyl)propyl]-5-methylproline]",> 10000
20,"CC(C)[C@](C)(N)C(=O)N[C@H]1CN[C@H](C(=O)O)[C@@H]1CCCB(O)O [Example 47, (2S,3R,4R)-4-((S)-2-amino-2,3-dimethylbutanamido)-3-(3-boronopropyl)pyrrolidine-2-carboxylic acid]",29
21,"CN(C)C[C@H]1CN[C@H](C(=O)O)[C@]1(C)CCCB(O)O [Example 78, (2S,3R,4R)-3-(3-boronopropyl)-4-((dimethylamino)methyl)-3-methylpyrrolidine-2-carboxylic acid]",> 10000
22,"CCN[C@H]1CN[C@H](C(=O)O)[C@@H]1CCCB(O)O [Example 30, (2S,3R,4R)-3-(3-boronopropyl)-4-(ethylamino)pyrrolidine-2-carboxylic acid]",84.5
23,"O=C(O)[C@@]1(CCO)NCC[C@H]1CCCB(O)O [Example 53, (2S,3R)-3-(3-boronopropyl)-2-(2-hydroxyethyl)pyrrolidine-2-carboxylic acid]",1480
24,"CN1C[C@@](CO)(CCCB(O)O)[C@H]1C(=O)O [Example 66, (2S,3S)-3-(3-boronopropyl)-3-(hydroxymethyl)-1-methylazetidine-2-carboxylic acid]",269
25,"CC(C)(C)[C@H](N)C(=O)N[C@H]1CN[C@H](C(=O)O)[C@@H]1CCCB(O)O [Example 38, (2S,3R,4R)-4-((S)-2-amino-3,3-dimethylbutanamido)-3-(3-boronopropyl)pyrrolidine-2-carboxylic acid]",0.818
26,"C[C@]1(CCCB(O)O)[C@@H](C(=O)O)NC[C@@H]1N [Example 71, (2S,3R,4R)-4-amino-3-(3-boronopropyl)-3-methylpyrrolidine-2-carboxylic acid]",17
27,"O=C(O)[C@H]1NCCC[C@@H]1CCCB(O)O (single isomer, unassigned) [Example 1D]",22800
28,"C[C@H](N)C(=O)N[C@H]1CN[C@H](C(=O)O)[C@@H]1CCCB(O)O [Example 41, (2S,3R,4R)-4-((S)-2-aminopropanamido)-3-(3-boronopropyl)pyrrolidine-2-carboxylic acid]",13.6
29,"N[C@H](C(=O)N[C@H]1CN[C@H](C(=O)O)[C@@H]1CCCB(O)O)C1Cc2ccccc2C1 [Example 48, (2S,3R,4R)-4-((S)-2-amino-2-(2,3-dihydro-1H-inden-2-yl)acetamido)-3-(3-boronopropyl)pyrrolidine-2-carboxylic acid]",2

# The next lines start with the values.
row,IC50 [nM],Compound
1,> 10000,N[C@@]1(C(=O)O)CNC[C@@]1(CO)CCCB(O)O [Example 94C]
2,3080,"NC1(C(=O)O)CNCC1(CO)CCCB(O)O (single isomer, unassigned) [Example 94A, 3-amino-4-(3-boronopropyl)-4-(hydroxymethyl)pyrrolidine-3-carboxylic acid]"
3,124,"O=C(O)[C@H]1NC[C@H](O)[C@@]1(F)CCCB(O)O [Example 92B, (2R,3R,4S)-3-(3-boronopropyl)-3-fluoro-4-hydroxypyrrolidine-2-carboxylic acid]"
4,> 10000,"O=C(O)[C@H]1NC[C@@H](O)[C@@]1(F)CCCB(O)O [Example 92A, (2R,3R,4R)-3-(3-boronopropyl)-3-fluoro-4-hydroxypyrrolidine-2-carboxylic acid]"
5,2260,"C[C@@]1(C(=O)O)NCC[C@@H]1CCCB(O)O [Example 16B, (3S)-3-[3-(dihydroxyboranyl)propyl]-2-methyl-D-proline]"
6,133,"O=C(O)[C@]1(CO)NCC[C@H]1CCCB(O)O (single isomer, unassigned) [Example 59B]"
7,18,"O=C(O)[C@H]1NCC[C@H]1CCCB(O)O (single isomer, unassigned) [Example 9A]"
8,940,"NC1(C(=O)O)CNCC1(CO)CCCB(O)O (single isomer, unassigned) [Example 94B]"
9,70,"C[C@]1(C(=O)O)NCC[C@H]1CCCB(O)O [Example 16A, (3R)-3-[3-(dihydroxyboranyl)propyl]-2-methyl-L-proline]"
10,> 10000,"O=C(O)[C@H]1NC[C@@H](O)[C@H]1CCCB(O)O [Example 20B, (3S,4S) 3-[3-(dihydroxyboranyl)propyl]-4-hydroxy-L-proline]"
11,> 10000,"O=C(O)[C@@H]1NCC[C@H]1CCCB(O)O [Example 15A, (3R)-3-[3-(dihydroxyboranyl)propyl]-D-proline]"
